Results from US20230017045A1, “PYRIDINE AND PYRIMIDINE CARBOXYLATE HERBICIDES AND METHODS OF USE THEREOF” (Dow AgroSciences LLC, priority 2017, published 2023).
Like-named read-outs stand apart in the source and are kept apart here.

System: test plant species
Assay: Post-emergent herbicidal activity test (greenhouse, foliar spray, visual growth reduction)
Assay type: in vivo
Conditions: post-emergence, 336 h, 140 g ai/ha
Method in brief: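 Greenhouse plants at first–second true leaf stage sprayed overhead at 187 L/ha with compound in acetone/water/isopropanol/DMSO/crop oil/X-77 carrier; controls received solvent blank. Injury rated visually after 14 d on a 0–100% scale versus untreated and control plants, converted to growth reduction.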

[1] = ECHCG: barnyardgrass (Echinochloa crus-galli), 14 days after application, read-out: Visual Growth Reduction (%) 14 Days After Application, ECHCG
[2] = IPOHE: ivy-leaf morning glory (Ipomoea hederacea), 14 days after application, read-out: Visual Growth Reduction (%) 14 Days After Application, IPOHE
[3] = KCHSC: kochia (Bassia scoparia), 14 days after application, read-out: Visual Growth Reduction (%) 14 Days After Application, KCHSC
[4] = ORYSA: rice (Oryza sativa), 14 days after application, read-out: Visual Growth Reduction (%) 14 Days After Application, ORYSA
[5] = SETFA: giant foxtail (Setaria faberi), 14 days after application, read-out: Visual Growth Reduction (%) 14 Days After Application, SETFA
[6] = SORVU: grain sorghum (Sorghum vulgare), 14 days after application, read-out: Visual Growth Reduction (%) 14 Days After Application, SORVU
[7] = STEME: common chickweed (Stellaria media), 14 days after application, read-out: Visual Growth Reduction (%) 14 Days After Application, STEME
[8] = TRZAS: wheat, spring (Triticum aestivum), 14 days after application, read-out: Visual Growth Reduction (%) 14 Days After Application, TRZAS
[9] = blackgrass (Alopecurus myosuroides), 14 Days After Application, read-out: Visual Growth Reduction (%) ALOMY
[10] = canada thistle (Cirsium arvense), 14 Days After Application, read-out: Visual Growth Reduction (%) CIRAR
[11] = crabgrass (Digitaria sanguinalis), 14 Days After Application, read-out: Visual Growth Reduction (%) DIGSA
[12] = lambsquarters (Chenopodium album), 14 Days After Application, read-out: Visual Growth Reduction (%) CHEAL
[13] = redroot pigweed (Amaranthus retroflexus), 14 Days After Application, read-out: Visual Growth Reduction (%) AMARE
[14] = wild oat (Avena fatua), 14 Days After Application, read-out: Visual Growth Reduction (%) AVEFA
[15] = yellow nutsedge (Cyperus esculentus), 14 Days After Application, read-out: Visual Growth Reduction (%) CYPES
[16] = ALOMY: blackgrass (Alopecurus myosuroides), 14 days after application, read-out: Visual Growth Reduction (%) 14 Days After Application, ALOMY
[17] = AMARE: redroot pigweed (Amaranthus retroflexus), 14 days after application, read-out: Visual Growth Reduction (%) 14 Days After Application, AMARE
[18] = AVEFA: wild oat (Avena fatua), 14 days after application, read-out: Visual Growth Reduction (%) 14 Days After Application, AVEFA
[19] = CHEAL: lambsquarters (Chenopodium album), 14 days after application, read-out: Visual Growth Reduction (%) 14 Days After Application, CHEAL
[20] = CIRAR: canada thistle (Cirsium arvense), 14 days after application, read-out: Visual Growth Reduction (%) 14 Days After Application, CIRAR
[21] = CYPES: yellow nutsedge (Cyperus esculentus), 14 days after application, read-out: Visual Growth Reduction (%) 14 Days After Application, CYPES
[22] = DIGSA: crabgrass (Digitaria sanguinalis), 14 days after application, read-out: Visual Growth Reduction (%) 14 Days After Application, DIGSA

| SMILES | pest or weed control at 140 g/ha [1] | pest or weed control at 140 g/ha [2] | pest or weed control at 140 g/ha [3] | pest or weed control at 140 g/ha [4] | pest or weed control at 140 g/ha [5] | pest or weed control at 140 g/ha [6] | pest or weed control at 140 g/ha [7] | pest or weed control at 140 g/ha [8] | pest or weed control at 140 g/ha [9] | pest or weed control at 140 g/ha [11] | pest or weed control at 140 g/ha [12] | pest or weed control at 140 g/ha [13] | pest or weed control at 140 g/ha [14] | pest or weed control at 140 g/ha [15] | pest or weed control at 140 g/ha [16] | pest or weed control at 140 g/ha [17] | pest or weed control at 140 g/ha [18] | pest or weed control at 140 g/ha [19] | pest or weed control at 140 g/ha [20] | pest or weed control at 140 g/ha [21] | further results |
| --- | --- | --- | --- | --- | --- | --- | --- | --- | --- | --- | --- | --- | --- | --- | --- | --- | --- | --- | --- | --- | --- |
| COC(=O)c1nc(-c2cc(F)c(C(F)(F)F)cc2F)c(Cl)cc1Cl [F325, Methyl 3,5-dichloro-6-(2,5-difluoro-4-(trifluoromethyl)phenyl)picolinate] | 0 to 29% | 95 to 100% | 0 to 29% | 0 to 29% | 30 to 44% | 85 to 94% | 0 to 29% | 0 to 29% | 0 to 29% | 75 to 84% | 95 to 100% | 60 to 74% | 0 to 29% | 0 to 29% |  |  |  |  |  |  | pest or weed control at 140 g/ha [10]: 85 to 94% |
| COC(=O)c1nc(-c2ccc(Cl)cc2)ccc1Cl [F82, methyl 3-chloro-6-(4-chlorophenyl)picolinate] | 0 to 29% | 75 to 84% | 60 to 74% | 0 to 29% |  | 0 to 29% | 30 to 44% |  |  |  |  |  |  |  | 0 to 29% | 95 to 100% | 0 to 29% | 60 to 74% | 75 to 84% | 75 to 84% | pest or weed control at 140 g/ha [22]: 0 to 29% |
| COC(=O)c1nc(-c2ccc(C(F)(F)F)nc2)ccc1Cl [F114, Methyl 5-chloro-6′-(trifluoromethyl)-[2,3′-bipyridine]-6-carboxylate] | 0 to 29% | 30 to 44% | 0 to 29% | 0 to 29% | 0 to 29% | 0 to 29% | 0 to 29% | 0 to 29% |  |  |  |  |  |  | 0 to 29% | 0 to 29% | 0 to 29% | 0 to 29% | 0 to 29% | 0 to 29% | pest or weed control at 140 g/ha [22]: 0 to 29% |
| C#CCOC(=O)c1nc(-c2ccc(C(F)(F)F)cc2Cl)ccc1Cl [F45, prop-2-yn-1-yl 3-chloro-6-(2-chloro-4-(trifluoromethyl)phenyl)picolinate] | 30 to 44% |  | 85 to 94% | 60 to 74% | 85 to 94% | 85 to 94% | 75 to 84% | 85 to 94% |  |  |  |  |  |  | 30 to 44% | 95 to 100% | 45 to 59% | 95 to 100% | 95 to 100% | 0 to 29% | pest or weed control at 140 g/ha [22]: 95 to 100% |
| COC(=O)c1nc(-c2ccc(N)cc2F)c(F)cc1Cl [F348, Methyl 6-(4-amino-2-fluorophenyl)-3-chloro-5-fluoropicolinate] | 0 to 29% | 0 to 29% | 0 to 29% | 0 to 29% | 0 to 29% | 0 to 29% | 0 to 29% | 0 to 29% | 0 to 29% | 0 to 29% | 0 to 29% | 0 to 29% | 0 to 29% | 0 to 29% |  |  |  |  |  |  |  |
| COC(=O)c1nc(-c2cc(F)c3c(c2)OC(F)(F)O3)c(F)cc1Cl [F240, Methyl 3-chloro-5-fluoro-6-(2,2,7-trifluorobenzo[d][1,3]dioxol-5-yl)picolinate] | 0 to 29% | 95 to 100% | 0 to 29% | 0 to 29% | 0 to 29% | 75 to 84% | 0 to 29% | 0 to 29% | 0 to 29% | 95 to 100% | 60 to 74% | 30 to 44% | 0 to 29% | 0 to 29% |  |  |  |  |  |  | pest or weed control at 140 g/ha [10]: 0 to 29% |
| COc1cc(C(F)(F)F)cc(Cl)c1-c1ccc(Cl)c(C(=O)O)n1 [F223, 3-Chloro-6-(2-chloro-6-methoxy-4-(trifluoromethyl)phenyl) picolinic acid] | 75 to 84% | 95 to 100% | 95 to 100% | 30 to 44% | 85 to 94% | 85 to 94% | 60 to 74% | 75 to 84% | 0 to 29% | 60 to 74% | 95 to 100% | 95 to 100% | 60 to 74% | 45 to 59% |  |  |  |  |  |  | pest or weed control at 140 g/ha [10]: 95 to 100% |
| COC(=O)c1nc(-c2cc(Br)c(C(F)(F)F)cc2Cl)ccc1Cl [F151, Methyl 6-(5-bromo-2-chloro-4-(trifluoromethyl)phenyl)-3-chloropicolinate] | 0 to 29% | 95 to 100% | 45 to 59% | 0 to 29% | 0 to 29% | 95 to 100% | 0 to 29% | 0 to 29% |  |  |  |  |  |  | 0 to 29% | 95 to 100% | 0 to 29% | 95 to 100% | 45 to 59% | 0 to 29% | pest or weed control at 140 g/ha [22]: 0 to 29% |
| COC(=O)c1nc(-c2ccc(SC(F)(F)F)cc2)c(F)cc1Cl [F91, Methyl 3-chloro-5-fluoro-6-(4-((trifluoromethyl)thio)phenyl) picolinate] | 0 to 29% | 30 to 44% | 0 to 29% | 0 to 29% | 0 to 29% | 0 to 29% | 0 to 29% | 0 to 29% |  |  |  |  |  |  | 0 to 29% | 0 to 29% | 0 to 29% | 0 to 29% | 30 to 44% | 0 to 29% | pest or weed control at 140 g/ha [22]: 0 to 29% |
| COC(=O)c1nc(-c2ccc3ccsc3c2F)c(Cl)cc1Cl [F330, Methyl 3,5-dichloro-6-(7-fluorobenzo[b]thiophen-6-yl)picolinate] | 0 to 29% | 0 to 29% | 0 to 29% | 0 to 29% | 0 to 29% | 0 to 29% | 0 to 29% | 0 to 29% | 0 to 29% | 0 to 29% | 0 to 29% | 0 to 29% | 0 to 29% | 30 to 44% |  |  |  |  |  |  |  |
